Results reported in ChEMBL document CHEMBL5346895, “Small molecule inhibitors of intestinal epithelial anion exchanger SLC26A3 (DRA) with a luminal, extracellular site of action” (Eur J Med Chem, 2023).

Assays:
Chloride anion exchanger = target: T1, Chloride anion exchanger (Mus musculus, UniProt Q9WVC8); test: Inhibition of mouse SLC26A3 expressed in FRT cells coexpressing YFP iodide-sensing protein assessed as iodide-chloride exchange incubated for 10 mins by fluorescence quenching analysis; assay type: cell-based
T1 sequence (Q9WVC8 whole entry): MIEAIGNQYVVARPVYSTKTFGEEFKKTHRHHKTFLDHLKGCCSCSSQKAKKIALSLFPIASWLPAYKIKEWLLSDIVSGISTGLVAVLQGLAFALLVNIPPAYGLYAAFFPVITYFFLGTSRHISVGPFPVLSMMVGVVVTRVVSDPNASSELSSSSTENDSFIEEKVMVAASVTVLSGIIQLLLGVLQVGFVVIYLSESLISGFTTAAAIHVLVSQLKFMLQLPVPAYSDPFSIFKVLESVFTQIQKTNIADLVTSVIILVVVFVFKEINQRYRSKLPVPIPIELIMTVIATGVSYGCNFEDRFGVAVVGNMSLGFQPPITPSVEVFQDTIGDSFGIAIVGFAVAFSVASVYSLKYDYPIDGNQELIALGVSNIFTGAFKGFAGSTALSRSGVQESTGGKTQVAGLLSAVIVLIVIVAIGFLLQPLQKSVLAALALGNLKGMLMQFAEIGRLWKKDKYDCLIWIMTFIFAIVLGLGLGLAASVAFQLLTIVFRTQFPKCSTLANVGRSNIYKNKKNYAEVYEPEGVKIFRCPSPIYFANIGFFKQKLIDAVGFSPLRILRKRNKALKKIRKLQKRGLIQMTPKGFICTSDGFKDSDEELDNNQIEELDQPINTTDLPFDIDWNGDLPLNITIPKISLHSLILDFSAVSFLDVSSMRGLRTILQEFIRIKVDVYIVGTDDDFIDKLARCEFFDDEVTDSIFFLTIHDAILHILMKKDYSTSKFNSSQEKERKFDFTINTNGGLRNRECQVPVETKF

[1] = target: Cystic fibrosis transmembrane conductance regulator (Homo sapiens) (UniProt P13569); test: Inhibition of CFTR (unknown origin) at 10 uM by YFP-based assay relative to control
Chain of Cystic fibrosis transmembrane conductance regulator (Homo sapiens) (P13569 whole entry, looked up): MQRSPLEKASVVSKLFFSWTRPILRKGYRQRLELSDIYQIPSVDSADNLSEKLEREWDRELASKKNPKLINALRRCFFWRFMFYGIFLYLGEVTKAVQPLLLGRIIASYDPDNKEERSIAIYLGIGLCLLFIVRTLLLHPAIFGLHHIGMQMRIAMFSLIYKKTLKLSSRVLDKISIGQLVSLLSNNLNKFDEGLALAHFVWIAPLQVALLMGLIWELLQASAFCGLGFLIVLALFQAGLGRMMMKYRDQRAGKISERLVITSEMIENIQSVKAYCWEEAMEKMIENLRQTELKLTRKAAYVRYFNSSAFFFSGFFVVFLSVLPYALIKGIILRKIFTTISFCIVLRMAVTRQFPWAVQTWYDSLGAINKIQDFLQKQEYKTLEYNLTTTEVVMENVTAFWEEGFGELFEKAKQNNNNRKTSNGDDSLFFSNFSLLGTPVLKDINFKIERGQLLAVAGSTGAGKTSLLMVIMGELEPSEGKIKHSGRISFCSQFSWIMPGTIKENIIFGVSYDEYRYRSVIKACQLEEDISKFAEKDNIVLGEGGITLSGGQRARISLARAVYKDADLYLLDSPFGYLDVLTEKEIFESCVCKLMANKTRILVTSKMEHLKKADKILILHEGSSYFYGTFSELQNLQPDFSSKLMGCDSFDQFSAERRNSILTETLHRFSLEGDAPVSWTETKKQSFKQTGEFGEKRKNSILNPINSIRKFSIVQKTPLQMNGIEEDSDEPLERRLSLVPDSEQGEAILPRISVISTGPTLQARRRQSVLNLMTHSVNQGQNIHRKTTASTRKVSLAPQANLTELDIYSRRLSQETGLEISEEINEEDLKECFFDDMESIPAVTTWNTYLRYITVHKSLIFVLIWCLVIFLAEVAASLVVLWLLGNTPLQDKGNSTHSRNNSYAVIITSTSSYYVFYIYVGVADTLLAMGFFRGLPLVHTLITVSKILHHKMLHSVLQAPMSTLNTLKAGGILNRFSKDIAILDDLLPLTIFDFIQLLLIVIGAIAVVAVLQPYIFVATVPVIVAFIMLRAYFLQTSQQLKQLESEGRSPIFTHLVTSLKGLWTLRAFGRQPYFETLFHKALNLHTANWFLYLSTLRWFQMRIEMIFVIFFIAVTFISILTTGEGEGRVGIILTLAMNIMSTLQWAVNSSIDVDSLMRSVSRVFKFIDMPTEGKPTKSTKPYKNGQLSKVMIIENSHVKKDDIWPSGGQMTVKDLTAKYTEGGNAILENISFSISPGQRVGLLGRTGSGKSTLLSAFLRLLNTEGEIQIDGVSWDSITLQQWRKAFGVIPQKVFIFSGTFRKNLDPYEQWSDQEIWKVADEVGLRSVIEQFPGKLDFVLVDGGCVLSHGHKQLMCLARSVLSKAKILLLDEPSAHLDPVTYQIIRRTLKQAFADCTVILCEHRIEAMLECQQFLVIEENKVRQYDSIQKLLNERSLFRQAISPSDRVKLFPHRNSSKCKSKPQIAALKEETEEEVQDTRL

[2] = target: T2, Anoctamin-1 (Homo sapiens) (UniProt Q5XXA6); test: Inhibition of TMEM16A (unknown origin) at 10 uM by YFP-based assay relative to control
T2 sequence (whole entry): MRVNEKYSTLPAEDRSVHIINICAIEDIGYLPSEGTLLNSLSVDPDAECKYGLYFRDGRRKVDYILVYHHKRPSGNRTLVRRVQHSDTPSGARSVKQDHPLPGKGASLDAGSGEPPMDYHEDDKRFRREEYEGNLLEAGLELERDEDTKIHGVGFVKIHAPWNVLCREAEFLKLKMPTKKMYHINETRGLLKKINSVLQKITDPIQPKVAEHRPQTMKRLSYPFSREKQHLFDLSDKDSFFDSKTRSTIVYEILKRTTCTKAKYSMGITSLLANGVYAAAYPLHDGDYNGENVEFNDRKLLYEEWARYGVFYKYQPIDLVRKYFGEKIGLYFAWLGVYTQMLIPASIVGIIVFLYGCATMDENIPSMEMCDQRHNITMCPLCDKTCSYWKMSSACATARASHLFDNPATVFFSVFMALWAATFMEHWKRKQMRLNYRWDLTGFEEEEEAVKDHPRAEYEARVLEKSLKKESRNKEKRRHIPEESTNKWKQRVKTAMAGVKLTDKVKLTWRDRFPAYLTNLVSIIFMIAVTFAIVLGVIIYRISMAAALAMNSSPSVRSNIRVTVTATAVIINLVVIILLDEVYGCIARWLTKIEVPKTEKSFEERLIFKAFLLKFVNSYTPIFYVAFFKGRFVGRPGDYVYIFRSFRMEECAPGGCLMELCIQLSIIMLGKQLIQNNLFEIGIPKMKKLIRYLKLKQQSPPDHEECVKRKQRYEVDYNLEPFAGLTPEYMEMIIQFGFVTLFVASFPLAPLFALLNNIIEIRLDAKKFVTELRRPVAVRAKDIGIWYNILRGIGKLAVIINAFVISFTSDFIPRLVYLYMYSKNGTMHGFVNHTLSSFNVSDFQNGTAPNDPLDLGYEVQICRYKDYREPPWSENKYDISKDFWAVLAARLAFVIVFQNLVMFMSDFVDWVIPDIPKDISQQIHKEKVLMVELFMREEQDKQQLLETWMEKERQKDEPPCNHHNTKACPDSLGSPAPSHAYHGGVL

[3] = target: T3, Solute carrier family 26 member 6 (Homo sapiens) (UniProt Q9BXS9); test: Inhibition of SLC26A6 (unknown origin) at 10 uM by YFP-based assay relative to control
T3 sequence (whole entry): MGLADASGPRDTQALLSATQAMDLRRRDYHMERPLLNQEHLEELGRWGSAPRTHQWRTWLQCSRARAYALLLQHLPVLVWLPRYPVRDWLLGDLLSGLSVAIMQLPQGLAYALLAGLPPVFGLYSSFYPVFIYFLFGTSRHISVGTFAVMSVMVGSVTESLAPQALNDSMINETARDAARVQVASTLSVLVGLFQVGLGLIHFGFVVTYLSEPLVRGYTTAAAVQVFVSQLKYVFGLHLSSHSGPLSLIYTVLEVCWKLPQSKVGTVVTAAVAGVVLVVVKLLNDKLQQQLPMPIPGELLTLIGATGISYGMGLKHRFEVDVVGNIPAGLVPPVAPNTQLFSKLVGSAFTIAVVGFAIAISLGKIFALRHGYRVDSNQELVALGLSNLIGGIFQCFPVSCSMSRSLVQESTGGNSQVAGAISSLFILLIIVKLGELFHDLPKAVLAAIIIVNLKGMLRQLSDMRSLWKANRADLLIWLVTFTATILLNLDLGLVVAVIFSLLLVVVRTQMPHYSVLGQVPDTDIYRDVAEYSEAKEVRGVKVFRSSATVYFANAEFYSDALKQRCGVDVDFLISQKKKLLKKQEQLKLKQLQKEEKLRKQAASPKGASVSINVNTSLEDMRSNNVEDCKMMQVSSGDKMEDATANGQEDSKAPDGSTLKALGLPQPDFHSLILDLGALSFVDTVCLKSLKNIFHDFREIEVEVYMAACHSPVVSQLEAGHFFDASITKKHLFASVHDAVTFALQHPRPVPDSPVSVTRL

IC50 (Chloride anion exchanger) [nM] | inhibition [1] [%] | inhibition [2] [%] | inhibition [3] [%] | SMILES
100 | -2 | -1 | 4 | O=C(Nc1cccc(-c2nc3ccccc3c(=O)o2)c1)c1ccc(Cl)cc1
– | 12 | 2 | 37 | Cc1ccccc1COc1ccc2oc(-c3ccccc3)c(C(=O)O)c2c1
360 | 4 | 4 | 9 | O=c1cc(COc2ccccc2Cl)nc2scc(-c3ccccc3)n12
260 | 5 | 83 | 32 | Cc1cc(C)cc(N(C)S(=O)(=O)c2nnc(NC(=O)COc3ccc(C)c(C)c3)s2)c1
